Measurements published in PMC9501810, “Bitter Peptides YFYPEL, [sequence], and [sequence], Released during Gastric Digestion of Casein, Stimulate Mechanisms of Gastric Acid Secretion via Bitter Taste Receptors TAS2R16 and TAS2R38” (Journal of Agricultural and Food Chemistry, 2022).
Where “and” joins values, the source holds several entries; their conditions need not be identical. Equal values may be shown once.

Assays:
Type in all cases: cell-based, human
[1] = tested on: TAS2R38; assay: Proton secretion assay in TAS2R38 knock-down vs mock-transfected HGT-1 cells; conditions: TAS2R38kd vs mock-transfected HGT-1 cells, VAPFPEVF 17.5 µM, YFYPEL 0.03 µM, YQEPVLGPVRGPFPIIV 0.4 µM, 10 min, mean ± SEM; for reduction of the peptide-induced stimulation of proton secretion in TAS2R38kd cells: 72 h after 1 nM siRNA; for change of peptide-induced proton secretion, TAS2R38kd (in Figure 5E–G): negative = reduction
Procedure: The measurement of proton secretion from HGT-1 cells represents a well-established model for the identification of bitter compounds. By affecting extraoral bitter taste receptors with bitter compounds, a modulatory effect on proton secretion can be measured. For this purpose, cells were washed with KRHB and incubated with 3 μM of the intracellular pH indicator 1,5 carboxy-seminaphto-rhodafluor acetoxymethyl ester (SNARF-1-AM) under standard conditions. After 30 min, the cells were washed again with KRHB and then incubated with casein (0.01–10 μM equimolar related to the relevant forms αS1- and β-casein), hydrolysate (0.01–10 μM), or the peptides (0.01–200 μM). […] All substances were dissolved and diluted in KRHB. 1 mM histamine was used as a positive control. Measurements were performed using FlexStation 3 (Molecular Devices, USA). The excitation wavelength was 488 nm, and the emission wavelengths were 580 and 640 nm. For calibration (pH range 7.0–8.0), the intracellular and extracellular pH was adjusted with 2 μM nigericin in potassium buffer (20 mM NaCl, 110 mM KCl, 1 mM CaCl2, 1 mM MgSO4, 18 mM D-glucose, and 20 mM HEPES). The intracellular proton index (IPX) was calculated as the log2 value of the 580/640 ratio and compared with cells without treatment. Negative values represent increased secretion of protons and therefore stimulation of mechanisms regulating gastric acid secretion in HGT-1 cells. In contrast, positive values represent an inhibition of secretion compared to the untreated control.
Expression of TAS2R16 and TAS2R38 was reduced by treatment of HGT-1 cells with siRNA. 100,000 cells per well were seeded 1 day before the experiment into a 24-well plate. All reagents and siRNA were purchased from Thermo Fisher Scientific, USA (cytotoxicity was excluded by MTT). Transfection was performed with Lipofectamine RNAiMAX in Opti-Medium according to the manufacturer’s protocol. 1–50 nM of different siRNA sequences (HSS121396 and HSS181763 for TAS2R16 and HSS108754 and HSS108756 for TAS2R38) and three different incubation times (24, 48, and 72 h) were tested. Mock control experiments were performed analogously with 1 or 10 nM Stealth RNAi siRNA negative control. To verify the functionality of the transfection process, verified 10 nM siRNA targeting MAPK1 (VHS40312) was used (positive control). The transfection rate was checked by qPCR as described in section 2.11. For the proton secretion assays, 20,000 cells per well were seeded 1 day before transfection into a black 96-well plate. After 72 h of transfection, proton secretion activities of TAS2R16 knock-down or TAS2R38 knock-down HGT-1 were compared with the mock transfected cells by means of ΔIPX.

[2] = tested on: TAS2R1; assay: RT-qPCR gene expression of TAS2R1 in HGT-1 cells; conditions: VAPFPEVF 17.5 µM, YFYPEL 0.03 µM, YQEPVLGPVRGPFPIIV 0.4 µM, normalized to PPIA and GAPDH and untreated cells, mean, n = 3–5
Procedure: (§1) For mRNA expression analysis, 800,000 cells were seeded in a T25 cell culture flask (25 cm^2) 1 day before the experiment. After incubation with 17.5 μM […], 0.03 μM YFYPEL, or 0.4 μM […] for 15, 30, 60, and 120 min, RNA was isolated using the peqGOLD RNA Kit (VWR Peqlab, USA) following the manufacturer’s protocol. Determination of RNA concentration (A260/A280 between 2.03 and 2.09) was performed on a NanoDrop One^c (Thermo Fisher Scientific Inc., USA). RNA integrity number (RIN 9.9–10.0, version 2.6, assay class Eukaryote Total RNA Nano) was analyzed using a 2100 Bioanalyzer (Agilent Technologies, USA). Removal of gDNA and synthesis of cDNA were performed using the iScript gDNA Clear cDNA Synthesis Kit (BioRad, Feldkirchen, Germany) following the manufacturer’s protocol. Real-time-qPCR (RT-qPCR) was performed with 50 ng cDNA amplified with SsoAdvanced Universal SYBR Green Supermix (Bio-Rad Laboratories, Inc., USA). The sequences of the forward and reverse primers of the 25 TAS2Rs were taken from Liszt et al.([13]) (Supporting Information Table-SI 3). Verified primers for the TAS1Rs (TAS1R1: qHsaCID0013443; TAS1R2: qHsaCID0016106; TAS1R3: qHsaCED0002321) and for MAPK1 (qHsaCEP0050000) were obtained from Bio-Rad Laboratories. PPIA[37] and GAPDH[38] were used as reference genes. The effects of the peptides on gene expression were analyzed in comparison to untreated control cells.

[3] = tested on: TAS2R3; assay: RT-qPCR gene expression of TAS2R3 in HGT-1 cells; conditions: VAPFPEVF 17.5 µM, YFYPEL 0.03 µM, YQEPVLGPVRGPFPIIV 0.4 µM, normalized to PPIA and GAPDH and untreated cells, mean, n = 3–5
Procedure: as §1

[4] = tested on: TAS2R4; assay: RT-qPCR gene expression of TAS2R4 in HGT-1 cells; conditions: VAPFPEVF 17.5 µM, YFYPEL 0.03 µM, YQEPVLGPVRGPFPIIV 0.4 µM, normalized to PPIA and GAPDH and untreated cells, mean, n = 3–5
Procedure: as §1

[5] = tested on: TAS2R7; assay: RT-qPCR gene expression of TAS2R7 in HGT-1 cells; conditions: VAPFPEVF 17.5 µM, YFYPEL 0.03 µM, YQEPVLGPVRGPFPIIV 0.4 µM, normalized to PPIA and GAPDH and untreated cells, mean, n = 3–5
Procedure: as §1

[6] = tested on: TAS2R8; assay: RT-qPCR gene expression of TAS2R8 in HGT-1 cells; conditions: VAPFPEVF 17.5 µM, YFYPEL 0.03 µM, YQEPVLGPVRGPFPIIV 0.4 µM, normalized to PPIA and GAPDH and untreated cells, mean, n = 3–5
Procedure: as §1

[7] = tested on: TAS2R41; assay: RT-qPCR gene expression of TAS2R41 in HGT-1 cells; conditions: VAPFPEVF 17.5 µM, YFYPEL 0.03 µM, YQEPVLGPVRGPFPIIV 0.4 µM, normalized to PPIA and GAPDH and untreated cells, mean, n = 3–5
Procedure: as §1

[8] = tested on: TAS2R43; assay: RT-qPCR gene expression of TAS2R43 in HGT-1 cells; conditions: VAPFPEVF 17.5 µM, YFYPEL 0.03 µM, YQEPVLGPVRGPFPIIV 0.4 µM, normalized to PPIA and GAPDH and untreated cells, mean, n = 3–5
Procedure: as §1

[9] = tested on: TAS2R50; assay: RT-qPCR gene expression of TAS2R50 in HGT-1 cells; conditions: VAPFPEVF 17.5 µM, YFYPEL 0.03 µM, YQEPVLGPVRGPFPIIV 0.4 µM, normalized to PPIA and GAPDH and untreated cells, mean, n = 3–5
Procedure: as §1

[10] = tested on: TAS1R1; assay: RT-qPCR gene expression of TAS1R1 in HGT-1 cells
Procedure: as §1

Substance	reduction of the peptide-induced stimulation of proton secretion in TAS2R38kd cells [1] [%]	change of peptide-induced proton secretion, TAS2R38kd (in Figure 5E–G) [1] [%]	change in gene expression of TAS2R1 ([2]; incubation 15 min) [fold change]	change in gene expression of TAS2R1 ([2]; incubation 30 min) [fold change]	change in gene expression of TAS2R1 ([2]; incubation 60 min) [fold change]	change in gene expression of TAS2R1 ([2]; incubation 120 min) [fold change]	change in gene expression of TAS2R3 ([3]; incubation 15 min) [fold change]	change in gene expression of TAS2R3 ([3]; incubation 30 min) [fold change]	change in gene expression of TAS2R3 ([3]; incubation 60 min) [fold change]	change in gene expression of TAS2R3 ([3]; incubation 120 min) [fold change]	change in gene expression of TAS2R4 ([4]; incubation 15 min) [fold change]	change in gene expression of TAS2R4 ([4]; incubation 30 min) [fold change]	change in gene expression of TAS2R4 ([4]; incubation 60 min) [fold change]	change in gene expression of TAS2R4 ([4]; incubation 120 min) [fold change]	change in gene expression of TAS2R7 ([5]; incubation 15 min) [fold change]	change in gene expression of TAS2R7 ([5]; incubation 30 min) [fold change]	change in gene expression of TAS2R7 ([5]; incubation 60 min)	change in gene expression of TAS2R7 ([5]; incubation 120 min) [fold change]	change in gene expression of TAS2R8 ([6]; incubation 15 min) [fold change]	change in gene expression of TAS2R8 ([6]; incubation 30 min) [fold change]	further results
VAPFPEVF [bitter casein peptide αS1-CN25–32]	37.5 ± 9.8	-37.5 ±9.8	0.79	1.36	0.44	1.62	0.70	1.56	1.06	1.72	0.50	1.14	0.95	1.42	1.20	0.71	1.05 fold change	0.62	1.24	2.25	change in gene expression of TAS2R8 ([6]; incubation 60 min): 1.34 fold change; change in gene expression of TAS2R8 ([6]; incubation 120 min): 2.04 fold change; change in gene expression of TAS2R41 ([7]; incubation 15 min): 0.95 fold change; change in gene expression of TAS2R41 ([7]; incubation 30 min): 2.32 fold change; change in gene expression of TAS2R41 ([7]; incubation 60 min): 0.98 fold change; change in gene expression of TAS2R41 ([7]; incubation 120 min): 1.90 fold change; change in gene expression of TAS2R43 ([8]; incubation 15 min): 0.57 fold change; change in gene expression of TAS2R43 ([8]; incubation 30 min): 1.14 fold change; change in gene expression of TAS2R43 ([8]; incubation 60 min): 0.72 fold change; change in gene expression of TAS2R43 ([8]; incubation 120 min): 1.49 fold change; change in gene expression of TAS2R50 ([9]; incubation 15 min): 0.56 fold change; change in gene expression of TAS2R50 ([9]; incubation 30 min): 1.39 fold change; change in gene expression of TAS2R50 ([9]; incubation 60 min): 0.83 fold change; change in gene expression of TAS2R50 ([9]; incubation 120 min): 1.56 fold change; change in expression of TAS1R1 ([10]; 15/30/60/120 min, VAPFPEVF 17.5 µM, YQEPVLGPVRGPFPIIV 0.4 µM, n = 3): no significant effect
YFYPEL [bitter casein peptide αS1-CN144–149]	62.8 ± 7.0	-62.8 ±7.0	0.36	1.03	0.55	0.73	1.54	1.08	1.19	1.34	1.24	0.81	0.92	1.13	1.23	2.50	6.71 fold change and 6.71 ± 1.56 fold change	1.18	1.62	1.90	change in gene expression of TAS2R8 ([6]; incubation 60 min): 1.87 fold change; change in gene expression of TAS2R8 ([6]; incubation 120 min): 1.69 fold change; change in gene expression of TAS2R41 ([7]; incubation 15 min): 2.82 fold change; change in gene expression of TAS2R41 ([7]; incubation 30 min): 1.56 fold change; change in gene expression of TAS2R41 ([7]; incubation 60 min): 4.58 fold change; change in gene expression of TAS2R41 ([7]; incubation 120 min): 3.00 fold change; change in gene expression of TAS2R43 ([8]; incubation 15 min): 1.49 fold change; change in gene expression of TAS2R43 ([8]; incubation 30 min): 0.64 fold change; change in gene expression of TAS2R43 ([8]; incubation 60 min): 0.91 fold change; change in gene expression of TAS2R43 ([8]; incubation 120 min): 1.02 fold change; change in gene expression of TAS2R50 ([9]; incubation 15 min): 1.50 fold change; change in gene expression of TAS2R50 ([9]; incubation 30 min): 0.70 fold change; change in gene expression of TAS2R50 ([9]; incubation 60 min): 0.92 fold change; change in gene expression of TAS2R50 ([9]; incubation 120 min): 0.91 fold change; change in expression of TAS1R1 ([10]; 0.03 µM YFYPEL, 30 min, p < 0.001): decrease
